Experimental data as given in ChEMBL document CHEMBL1134725, “2-(Anilinomethyl)imidazolines as alpha(1)-adrenoceptor agonists: the identification of alpha(1A) subtype selective 2'-carboxylic acid esters and amides” (Bioorg Med Chem Lett, 2001).

Assays:
[1] = target: T1, Alpha-1D adrenergic receptor (Homo sapiens, UniProt P25100); assay: Potency against cloned human alpha 1D-adrenoceptor expressed in rat-1 fibroblasts.; format: functional
T1 sequence (P25100 whole entry): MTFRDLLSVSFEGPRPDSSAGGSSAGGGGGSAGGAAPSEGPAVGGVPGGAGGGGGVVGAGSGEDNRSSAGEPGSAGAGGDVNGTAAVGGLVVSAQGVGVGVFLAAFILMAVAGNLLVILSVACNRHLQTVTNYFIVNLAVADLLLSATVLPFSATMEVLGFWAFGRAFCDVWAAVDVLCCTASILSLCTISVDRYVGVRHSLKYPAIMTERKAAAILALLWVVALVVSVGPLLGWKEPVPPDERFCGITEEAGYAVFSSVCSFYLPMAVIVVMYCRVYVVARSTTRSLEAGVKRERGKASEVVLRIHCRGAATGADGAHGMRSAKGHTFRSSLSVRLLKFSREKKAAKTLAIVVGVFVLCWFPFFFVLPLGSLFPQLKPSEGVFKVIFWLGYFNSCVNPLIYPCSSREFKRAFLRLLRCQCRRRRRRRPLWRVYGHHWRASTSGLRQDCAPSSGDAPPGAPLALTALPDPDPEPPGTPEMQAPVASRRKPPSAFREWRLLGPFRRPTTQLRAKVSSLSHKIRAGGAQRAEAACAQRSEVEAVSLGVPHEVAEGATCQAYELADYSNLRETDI

[2] = target: T2, Alpha-1A adrenergic receptor (Homo sapiens) (UniProt P35348); assay: Efficacy against alpha 1A adrenoceptor in human expressed as phenylephrine response at the dose of 40 uM; format: functional
T2 sequence (whole entry): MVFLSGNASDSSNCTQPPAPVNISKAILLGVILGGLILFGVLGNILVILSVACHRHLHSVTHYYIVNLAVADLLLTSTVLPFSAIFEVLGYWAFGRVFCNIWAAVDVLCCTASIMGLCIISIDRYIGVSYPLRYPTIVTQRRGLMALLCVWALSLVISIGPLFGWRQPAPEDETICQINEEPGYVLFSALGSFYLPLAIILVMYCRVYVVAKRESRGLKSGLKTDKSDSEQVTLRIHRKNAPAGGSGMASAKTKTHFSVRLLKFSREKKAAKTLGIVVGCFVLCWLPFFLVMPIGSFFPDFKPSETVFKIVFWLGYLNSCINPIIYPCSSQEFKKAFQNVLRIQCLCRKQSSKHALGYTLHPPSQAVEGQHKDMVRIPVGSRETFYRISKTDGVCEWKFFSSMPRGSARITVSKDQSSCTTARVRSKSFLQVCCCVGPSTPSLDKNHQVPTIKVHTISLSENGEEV

[3] = target: T1, Alpha-1D adrenergic receptor; assay: Concentration required for 50% inhibition of binding against human Alpha-1D adrenergic receptor
[4] = target: T3, Alpha-1A adrenergic receptor (Homo sapiens, UniProt P35348); assay: Concentration required for 50% inhibition of binding against Alpha-1A adrenergic receptor in human
T3 sequence (P35348 whole entry): T2 sequence (whole entry)

[5] = target: T4, Alpha-1B adrenergic receptor (Homo sapiens, UniProt P35368); assay: Concentration required for 50% inhibition of binding against human Alpha-1B adrenergic receptor
T4 sequence (P35368 whole entry): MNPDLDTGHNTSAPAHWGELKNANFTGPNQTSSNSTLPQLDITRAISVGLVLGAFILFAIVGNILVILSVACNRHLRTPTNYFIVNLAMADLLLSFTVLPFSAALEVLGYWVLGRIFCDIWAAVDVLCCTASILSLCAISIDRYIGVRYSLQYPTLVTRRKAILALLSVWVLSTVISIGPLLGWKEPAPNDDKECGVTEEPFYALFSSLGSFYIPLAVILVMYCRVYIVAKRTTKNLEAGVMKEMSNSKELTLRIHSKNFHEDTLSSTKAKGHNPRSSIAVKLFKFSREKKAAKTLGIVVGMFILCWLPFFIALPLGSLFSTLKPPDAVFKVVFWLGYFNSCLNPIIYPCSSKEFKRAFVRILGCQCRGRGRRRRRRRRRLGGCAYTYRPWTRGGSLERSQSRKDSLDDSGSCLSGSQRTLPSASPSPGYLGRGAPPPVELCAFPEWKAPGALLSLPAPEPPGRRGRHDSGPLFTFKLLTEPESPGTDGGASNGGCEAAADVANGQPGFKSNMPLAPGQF

[6] = target: T4, Alpha-1B adrenergic receptor; assay: Potency against cloned human alpha 1B adrenoceptor expressed in rat-1 fibroblasts.; format: functional
[7] = target: T3, Alpha-1A adrenergic receptor; assay: Agonist potency against cloned human alpha 1A adrenoceptor expressed in rat-1 fibroblasts.; format: functional
[8] = target: T5, Alpha-1B adrenergic receptor (Homo sapiens) (UniProt P35368); assay: Efficacy against alpha 1B-adrenoceptor in human expressed as phenylephrine response at the dose of 40 uM.; format: functional
T5 sequence (whole entry): T4 sequence (P35368 whole entry)

[9] = target: T6, Alpha-1D adrenergic receptor (Homo sapiens) (UniProt P25100); assay: Tested for efficacy against alpha 1D-adrenoceptor in human expressed as phenylephrine response at the dose of 40 uM; format: functional
T6 sequence (whole entry): T1 sequence (P25100 whole entry)

EC50 [1]	Max [2]	IC50 [3]	IC50 [4]	IC50 [5]	EC50 [6]	EC50 [7]	Max [8]	Max [9]	SMILES
> 5010 nM	103%	1480 nM	468 nM	1950 nM	> 5010 nM	20 nM			CCCCNC(=O)c1ccccc1NCC1=NCCN1
> 5010 nM	94%				> 5010 nM	20 nM			CCC(CC)OC(=O)c1ccccc1NCC1=NCCN1
> 5010 nM	96%				> 5010 nM	1.26 nM			CCC(C)OC(=O)c1ccccc1NCC1=NCCN1 (configuration not stated)
> 5010 nM					> 5010 nM	> 5010 nM			O=C(NC1CCCC1)c1ccccc1NCC1=NCCN1
63.1 nM	104%				158 nM	12.6 nM	105%	41%	CCOC(=O)c1ccccc1NCC1=NCCN1
10 nM	104%	89.1 nM	214 nM	692 nM	1.58 nM	2.51 nM	99%	115%	CNC(=O)c1ccccc1NCC1=NCCN1
	74%								Cc1cc(C(C)(C)C)c(O)c(C)c1CC1=NCCN1
398 nM	105%				79.4 nM	398 nM	106%	88%	O=C(c1ccccc1NCC1=NCCN1)N1CCCCC1
251 nM	68%				79.4 nM	501 nM	90%	59%	CC(C)COC(=O)c1ccccc1NCC1=NCCN1
631 nM	105%	6760 nM	2040 nM	10500 nM	251 nM	50.1 nM	98%	69%	CCN(C)C(=O)c1ccccc1NCC1=NCCN1
> 5010 nM					> 5010 nM	> 5010 nM			O=C(OC1CCCCC1)c1ccccc1NCC1=NCCN1
158 nM	104%				79.4 nM	7.94 nM	77%	69%	CCCNC(=O)c1ccccc1NCC1=NCCN1
> 5010 nM					> 5010 nM	> 5010 nM			O=C(NC1CCC1)c1ccccc1NCC1=NCCN1
316 nM	102%				126 nM	50.1 nM	95%	59%	CC(C)NC(=O)c1ccccc1NCC1=NCCN1
> 5010 nM	105%	6610 nM	851 nM	5890 nM	2000 nM	31.6 nM	32%		CCN(CC)C(=O)c1ccccc1NCC1=NCCN1
200 nM	104%				79.4 nM	20 nM	93%	58%	CN(C)C(=O)c1ccccc1NCC1=NCCN1
> 5010 nM	99%	1700 nM	1050 nM	2240 nM	251 nM	15.8 nM	50%		O=C(NC1CC1)c1ccccc1NCC1=NCCN1
15.8 nM	114%				25.1 nM	10 nM	63%	31%	CCCCOC(=O)c1ccccc1NCC1=NCCN1
> 5010 nM	72%				> 5010 nM	63.1 nM			c1ccc2c(CC3=NCCN3)cccc2c1 [NAPHAZOLINE]
> 5010 nM	105%				316 nM	126 nM	79%		O=C(c1ccccc1NCC1=NCCN1)N1CCCC1
0.501 nM	110%				0.398 nM	0.794 nM	107%	80%	COC(=O)c1ccccc1NCC1=NCCN1
15.8 nM	58%				12.6 nM	79.4 nM	90%	31%	CC(C)CNC(=O)c1ccccc1NCC1=NCCN1
79.4 nM	102%				200 nM	12.6 nM	64%	33%	CCNC(=O)c1ccccc1NCC1=NCCN1
> 5010 nM	96%				63.1 nM	7.94 nM	81%		CC(C)(C)OC(=O)c1ccccc1NCC1=NCCN1
> 5010 nM	100%	2000 nM	224 nM	1780 nM	> 5010 nM	3.16 nM			CC(C)OC(=O)c1ccccc1NCC1=NCCN1
> 5010 nM	58%				> 5010 nM	39.8 nM			O=C(OC1CCCC1)c1ccccc1NCC1=NCCN1
> 5010 nM	115%				> 5010 nM	100 nM			CCCN(CC)C(=O)c1ccccc1NCC1=NCCN1
> 5010 nM	82%				> 5010 nM	501 nM			CCC(C)NC(=O)c1ccccc1NCC1=NCCN1 (configuration not stated)

SMILES	EC50 [1]	Max [2]	IC50 [3]	IC50 [4]	IC50 [5]	EC50 [6]	EC50 [7]	Max [8]	Max [9]
c1ccc(C2CC2)c(OCC2=NCCN2)c1 [CIRAZOLINE]		93%				63.1 nM	12.6 nM	72%	31%
